Point of comparison: `Cc1ccc2c(c1)C(C(=S)Nc1c(C(C)C)cccc1C(C)C)c1ccccc1CO2` (stereo not given), melting point 140 °C. Against it:
- Nc1ccc(-c2ncc(NC(=O)OCc3ccccc3)c(=O)n2CC(=O)NC(Cc2ccccc2)C(=O)C(F)(F)F)cc1 (stereo not given) — lower, 98 to 101 °C
- CCOP(=O)(Cc1cc2c(cc1CP(=O)(OCC)OCC)C(CC)(CC)N(Cc1ccccc1)C2(CC)CC)OCC — lower, 81 to 83 °C
- COC(=O)c1ccccc1S(=O)(=O)NC(=O)Nc1cc(C)nc(C)n1 — lower, 125 to 127 °C
- Cn1nc(-c2ccccc2)c(C2CCCCC2)c1N — higher, 212 to 214 °C
- CCCOC(=O)c1ccc(OCCCCCCCc2cc(C)no2)cc1 — lower, 54 °C
- CCNc1cc(C)nc(Oc2c(C)cc(C)cc2C)c1C — lower, 115 to 116 °C
- Cc1cc(CCCOc2c(C)cc(-c3noc(=O)[nH]3)cc2C)on1 — higher, 194 to 195 °C
- CCCOc1ccc(C(N)=O)cc1-c1ccc(C#N)c(=O)[nH]1 — higher, 246 to 247 °C
- COc1ccc2c3c(c(=O)oc2c1)CN(Cc1cccnc1)CC3 — lower, 107 to 110 °C
- COc1ccc2oc(Cc3ccccc3OC)c(CC#N)c2c1 — lower, 122 °C
- CNC(=O)C(C)Oc1ccc(Oc2ccc(Cl)cc2)cc1 (stereo not given) — lower, 117 to 118 °C
- O=C(O)CCc1cc(C(=O)c2cccc(C(=O)O)c2)ccc1O — higher, 197 to 200 °C
- O=c1ccc(-c2cccc(Br)c2)nn1CN1CCOCC1 — lower, 110 to 111 °C
- CCCCCNc1cc(C(=O)OCCCCC)cc(S(N)(=O)=O)c1Oc1ccccc1 — lower, 138 to 139 °C
- CCOC(=O)CC[C@H](NC(=O)/C=C/C(=O)c1ccccc1)C(=O)OCC — lower, 83 to 85 °C
- CC(C)n1cc(C(=O)Nc2nncs2)c2ccc(Cl)cc21 — higher, 274 to 275 °C
- COc1cc(OC)nc(NC(=O)NS(=O)(=O)c2ccccc2C(C)=O)n1 — lower, 126 to 128 °C
- O=C1CN=C(c2ccccc2)c2ccccc2N1 — higher, 180 to 181 °C
- CCC1(CC)O[C@@H](Oc2ccc3c(O)c(NC(=O)C(C)C)c(=O)oc3c2C)[C@H](O)[C@H](OC(=O)C2(C)C=CCN2)[C@H]1OC (stereo not given in full) — not separable, 140 to 142 °C
- O=Cc1ccc(-c2ccc(O)cc2)c2sccc12 — higher, 202 to 204 °C
- NC(=O)c1c(Cl)c(-c2cccnc2)n2c1CN(S(=O)(=O)c1ccc(C(F)(F)F)cc1)CC2 — higher, 205 to 206 °C
- CS(=O)(=O)Nc1ccc(OCCBr)c(Cl)c1 — lower, 96 to 98 °C
- CC(=O)c1ccc(S(=O)(=O)Nc2cccnc2)cc1 — higher, 182 to 183 °C
- O=C(O)C(=O)Nc1ccccc1C(=O)NC1CCN(C2CCCCC2)C1 (stereo not given) — higher, 268 to 270 °C
- CC(=O)OC1CCC2C3CCC4CC(O[Si](C)(C)C(C)(C)C)CCC4C3CCC12C (stereo not given) — lower, 89 to 90 °C
- CCOc1nn(Cc2ccc(OC3CCN(c4ccccn4)CC3)cc2)cc1CCC(=O)O — higher, 142 to 143 °C
- CCCC(NS(=O)(=O)c1ccc(Cl)cc1)C(=O)Nc1ccc(CC(=O)OCC)cc1 (racemic) — lower, 93 to 95 °C
- NS(=O)(=O)c1ccc(-c2cccc(-c3nc(-c4ccc(Cl)cc4)cc(C(F)(F)F)n3)c2)s1 — higher, 226 °C
- NNC(=O)C(=O)N(N)C(=O)c1ccccc1 — higher, 226 °C
- COc1nc2ccccc2cc1NC(=S)N1CCN(c2cc(F)cc(F)c2)CC1 — not separable, 140 to 142 °C
- O=S(=O)(c1cc(Br)[nH]c1-c1ccc(Cl)cc1)C(F)(F)F — lower, 73 to 76 °C
- CCOC(=O)c1c(NCC(=O)c2ccccc2Cc2ccccc2)c2c(Cl)cc(Cl)cc2n1C(=O)OC(C)(C)C — higher, 163 °C
- O=c1cc(-c2ccoc2)c2ccc(CBr)cc2o1 — higher, 155 to 156 °C
- CCCNC(=O)C1Cc2[nH]c3ccc(OC)cc3c2C1 (stereo not given) — higher, 141 to 143 °C
- COC(=O)c1cccc(Cn2c(=O)c(=O)[nH]c3cc([N+](=O)[O-])ccc32)c1 — higher, 265 to 267 °C
- CCOC(=O)c1cnc(-c2ccccc2[N+](=O)[O-])[nH]c1=O — higher, 171 to 175 °C
- CCOc1cc(OCC2CCN(C)CC2)c(F)c(C(Nc2ccc(C(=N)N)cc2)C(=O)O)c1 (racemic) — higher, 232 °C
- CC1(C)CC(=O)C2=C(C1)NC1=C(C(=O)CC(C)(C)C1)C2c1cc(Br)cc(Br)c1 — higher, 288 to 290 °C
- CNC(=O)C=C(C)C=CC=C(C)C=Cc1c(C)cc(OC)c(C)c1C — higher, 206 °C
- CCCOc1ccccc1-c1ncc(NC(C)=O)c(=O)[nH]1 — higher, 195 to 197 °C
- CCOC(=O)c1ccc(N(C(=O)OCC)C(=O)c2ccc(C(=O)C(C)(C)C)cc2)cc1 — lower, 84 to 86 °C
- O=C(NCc1ccncc1)c1ccnc(N2CCN(CC3CC3)C2=O)c1 — higher, 160 to 162 °C
- CCOC(=O)c1cn(-c2ccc(C(F)(F)F)cc2)nc1C(C)C — lower, 74 to 75 °C
- CC(=O)Nc1nc2ccccc2n1-c1nc(N2CCOCC2)nc(N2CCOCC2)n1 — higher, 150 to 153 °C
- CC[C@@H](c1ccccc1)N(Cc1ccc(C(=O)O)c(F)c1F)S(=O)(=O)c1ccc(Cl)cc1 — lower, 127 to 129 °C
- O=c1ccn(CCO)c(C(O)c2ccc3c(c2)OCO3)c1OCc1ccccc1 (stereo not given) — higher, 195 to 196 °C
- COC(=O)c1sc(-c2ccccc2)c(N)c1N — higher, 148 to 150 °C
- CNc1snc(C)c1[N+](=O)[O-] — higher, 153 °C
- NS(=O)(=O)Oc1cccc(C(F)(F)F)c1 — lower, 100 to 102 °C
- CC1=C(CCC(C)(O)C#CCO)C(C)(C)CCC1 (stereo not given) — lower, 83 to 84 °C
- COc1cc(-c2nc3ccc(OCCN4CCCCC4)cc3n2Cc2ccccc2C(F)(F)F)cc(OC)c1OC — higher, 167 °C
- CCn1ncc(NCC(O)CO)c(Cl)c1=O (stereo not given) — lower, 120 to 124 °C
- CCc1cccc(NC(=O)C(C)(C)C)n1 — lower, 59 to 62 °C
- N#CN=c1[nH]c2cc(Cl)c(Cl)c([N+](=O)[O-])c2[nH]c1=O — higher, 280 to 285 °C
- O=C1Cc2cc(F)ccc2Oc2ccccc21 — lower, 63 to 64 °C
- Cc1c(C=O)c2cc(F)ccc2n1-c1ccc(OCc2ccccc2)cc1 — higher, 219 to 220 °C
- COC(=O)c1ncn2c1[C@@H]1CCCN1C(=O)c1sccc1-2 — higher, 192 to 193 °C
- Cc1cc(-n2cccn2)c2cccc(OCc3c(Cl)ccc(S(=O)(=O)N4CCC(CO)CC4)c3Cl)c2n1 — lower, 138 °C
- COC(=O)C1C2CCC(C2)C1N(C)S(=O)(=O)c1ccc(O)cc1 (stereo not given) — higher, 163 to 164 °C
- CCCCc1cn(CCC(C)C)c(=O)n1Cc1ccc(-c2ccccc2-c2nnn[nH]2)nc1 — higher, 168 to 170 °C
- COc1ccc(OC)c(S(=O)(=O)NC(=O)C(C)Br)c1 (stereo not given) — lower, 116 to 118 °C
- Cc1cccc2ncc(NC(=O)Nc3ccc(F)cc3F)c(-c3ccccc3Cl)c12 — higher, 218 to 220 °C
- COc1ccc(N2CCN(C(=O)Oc3ccc(Oc4ccc(C(F)(F)F)cn4)cc3)CC2)c(OC)c1 — lower, 98 to 99 °C
- Clc1ccc(-c2cccnc2)cn1 — lower, 113 to 115 °C
- CSCCC(NC=O)C(N)=O (racemic) — lower, 121 to 122 °C
- CC(=O)Nc1cnc(-c2ccccc2)c(-c2ccc(=O)n(C(C)C)n2)c1 — higher, 207 to 208 °C
- O=C(Nc1ccc(-n2ncn(-c3ccc(OCC(F)(F)C(F)F)cc3)c2=O)cc1)Oc1ccccc1 — higher, 204 to 206 °C
- COC(=O)c1ccc(Cc2cc3cc(C(F)(F)F)ccc3n2S(=O)(=O)c2ccc(C(C)C)cc2)cc1F — lower, 132 °C
- CCC(=O)N(C)c1cccc(-c2ccnc3c(C(=O)c4cccs4)cnn23)c1 — higher, 186 to 187 °C
- CC(=O)Nc1cc2c(cc1[N+](=O)[O-])N(NC(C)=O)CC2 — higher, 212 to 213 °C
- Cc1c(N)cccc1OC[C@@H]1CCCN1C(=O)OC(C)(C)C — lower, 110 °C
- COc1nc(-c2ccccc2F)c2ccsc2n1 — higher, 175 to 176 °C
- CCOC(=O)C(CCc1ccccc1)(NC(C)=O)C(=O)OCC — lower, 115 to 117 °C
- Clc1ccc(NN=Cc2ccccc2)cc1 — lower, 122 to 123 °C
- CCCn1c(COCC)nc2c(N)nc3cc(OCCN4CCOCC4)ccc3c21 — higher, 191 to 192 °C
- Cc1cc2c(-c3cccc(C=O)c3)c(CC(=O)Nc3ccc(F)cc3C(F)(F)F)c(=O)oc2cc1Cl — higher, 214 to 215 °C
- CC1(C(=O)O)OCCC2=CC3=CC=CCC3=C21 (stereo not given) — higher, 171 to 173 °C
- CCOC(=O)C1=C(C(F)(F)F)Nc2n[nH]cc2C1c1ccc(OC)cc1 (stereo not given) — higher, 159 to 161 °C
- CC(=O)NCC1CN(c2ccc3c(c2)C(=O)CCCC3)C(=O)O1 (stereo not given) — lower, 120 to 121 °C
- CC(C)(C)OC(=O)Nc1ccsc1NC(=O)OC(C)(C)C — higher, 165 to 167 °C
- CC(C)(C)OC(=O)Nc1cccc(C(=O)NCCC(=O)OCc2ccccc2)c1 — lower, 130 to 131 °C
- COC(=O)c1cccc(Cl)c1NC(=O)CC1c2ccccc2Oc2ccccc21 — higher, 178 to 179 °C
- CCN(C(=O)C(F)(F)F)c1cc(C)nc(Oc2c(C)cc(C)cc2C)c1C — lower, 110 to 111 °C
- COc1ccc(C=CC(=O)CC(=O)C=Cc2ccc(OC)c(OC)c2)cc1OC — lower, 129 to 131 °C
- CCCCOc1ccc(C(=O)N2CCCCc3sccc32)cc1 — lower, 87 to 90 °C
- O=C(Nc1nc(-c2ccccc2)cs1)C(=O)OC1CCCCC1 — higher, 160 to 161 °C
- CC(=O)N1c2ccccc2-c2c(N)cnn2C1C (stereo not given) — higher, 170 to 172 °C
- COc1cc(C(=O)N2Cc3ccccc3Cc3ccccc32)ccc1NC(=O)c1ccccc1C — higher, 209 to 210 °C
- CCN(CC)C(=O)c1ccoc1-c1ccc(C=O)cc1 — lower, 64 to 66 °C
- CC(=O)OCC1OC(n2c(Br)c(C#N)c3cc(Cl)c(Cl)cc32)C(O)C1O (stereo not given) — lower, 103 to 105 °C
- O=C(O)CSCCCCOc1ccccc1 — lower, 48 to 50 °C
- COC(=O)C=C(Br)SC#N — not separable, 139 to 142 °C
- CCCCC(=O)NCc1ccc(C#CCCOCCCCCCNCc2ccccc2)cc1 — lower, 66 to 67 °C
- Cc1cn(C(C(=O)N(C)C)c2ccccc2)nc1-c1ccccc1 (stereo not given) — lower, 136 to 138 °C
- CN(C)C=Nc1[nH]nc(NCc2ccccc2)c1C#N — higher, 197 to 200 °C
- COC(=O)c1cc(-c2ccncc2)sc1-c1ccncc1 — lower, 133 to 135 °C
- CC[C@H](C)[C@H](NS(=O)(=O)c1cccc2ccccc12)C(=O)N[C@@H](Cc1c[nH]c2ccccc12)C(=O)OC — higher, 172 to 174 °C
- CC(C)(C)OCC1CN(c2ccc3cc(OCc4ccccc4)ccc3c2)C(=O)O1 (stereo not given) — higher, 152 °C
- COc1ccc(NN=C(Sc2cccc(OC)c2)C(C)=O)cc1 — lower, 97 to 99 °C
